Laboratory results taken from patent publication US20260199365A1, “BIS-SULFONAMIDE SHIP1 ACTIVATORS” (The Research Foundation for the State University of New York, priority 2022, published 2026).

Experiments:
[1] = biological target: T1, recombinant human truncated SHIP1 (tSHIP1) (Homo sapiens, UniProt Q92835); assay: Malachite Green Phosphatase Release Assay (SHIP1 phosphatase activity); type: biochemical; settings: for Phosphatase activity in the Malachite Green Assay, analog concentration 125 μM: 125 μM analog; for Phosphatase activity in the Malachite Green Assay, analog concentration 125 μM / Phosphatase activity in the Malachite Green Assay, analog concentration 250 μM / Phosphatase activity in the Malachite Green Assay, analog concentration 500 μM: 100 μM PI(3,4,5)P3-diC8 substrate, normalized to vehicle control (DMSO) = 100%; for Phosphatase activity in the Malachite Green Assay, analog concentration 250 μM: 250 μM analog; for Phosphatase activity in the Malachite Green Assay, analog concentration 500 μM: 500 μM analog, >100% activation, <100% inhibition; for SHIP1 activator activity in the malachite green assay: discussion of Table 4 (125-500 μM)
T1 construct: tSHIP1 (SHIP1, residues 397-864) was amplified from pET24TEV-tSHIP1; His tag; made in house; host or cells: E. coli BL21
T1 sequence (Q92835 397-864): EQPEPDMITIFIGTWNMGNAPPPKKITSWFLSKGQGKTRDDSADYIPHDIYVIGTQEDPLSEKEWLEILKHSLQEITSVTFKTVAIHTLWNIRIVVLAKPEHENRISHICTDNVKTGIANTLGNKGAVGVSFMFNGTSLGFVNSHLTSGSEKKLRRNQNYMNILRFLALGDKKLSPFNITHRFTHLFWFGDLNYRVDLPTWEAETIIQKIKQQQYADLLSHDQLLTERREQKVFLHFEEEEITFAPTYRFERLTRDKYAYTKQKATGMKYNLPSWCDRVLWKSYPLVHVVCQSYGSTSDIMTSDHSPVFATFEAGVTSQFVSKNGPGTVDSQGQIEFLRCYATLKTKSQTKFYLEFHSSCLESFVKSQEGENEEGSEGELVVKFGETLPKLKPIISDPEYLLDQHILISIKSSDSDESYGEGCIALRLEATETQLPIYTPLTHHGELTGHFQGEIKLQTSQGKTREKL
Protocol: ^aPhosphatase activity for SHIP1 and SHIP2 enzyme as determined in the malachite green assay. Results were normalized to the phosphatase activity level from vehicle control (DMSO) used as 100% activity. Values >100% are attributed to activation, while values <100% show inhibition of the enzyme compared to the control. The assay was performed at the indicated concentration of the small molecule with 100 μM PI(3,4,5)P3-diC8 as the substrate. ^bnd=not determined, compound 23 was insoluble.
Cloning and expression of tSHIP1 of truncated human SHIP1 protein (tSHIP1) from human whole blood mRNA have been previously described (see Brooks R, Iyer, S., Akada, H., Neelam, S., Russo, C. M., Chisholm, J. D., and Kerr W. G. Coordinate Expansion of Murine Hematopoietic and Mesenchymal Stem Cell Compartments by SHIPi Stem Cells 2015; 33:848). Briefly, tSHIP1 (SHIP1, residues 397-864) was amplified from pET24TEV-tSHIP1. Plasmids were extracted with Midi Prep (Qiagen) and sequences were verified by sequencing of the entire expression regions. The plasmids were then transformed into E. coli BL21 (New England Biolabs). Fresh colonies were amplified in 1 L LB at 37° C., shaking at 250 rpm until OD600 nm reached 0.6. Protein expression was induced with […] IPTG and incubation was continued at 16° C., shaking at 250 rpm for 16 h. Following centrifugation, bacteria pellets were stored overnight at −20° C. Protein was extracted form bacterial cell pellet using BugBuster HT (Millipore), according to manufacturer's recommendations. The His-tagged protein was purified by FPLC using HisTrapHP 5 ml column (Cytiva Life Sciences) at a 5 ml/min flow rate and 10 mM-1M imidazole gradient in Buffer A (20 mM Tris pH 8.0, 300 mM NaCl, 10 mM imidazole, 5 mM β-mercaptoethanol). Fractions containing active protein by Malachite Green Phosphatase Release Assay (Echelon, see below) were pooled, concentrated and buffer exchanged to reduce imidazole concentration by centrifugation using Pierce Protein Concentrators 30KMWCO PES, (ThermoFisher Scientific). Protein was aliquoted and stored at −80° C. in a mixture of Buffer A (without β-ME) and 50% glycerol.
Malachite Green Phosphatase Release Assays: Malachite Green Phosphatase Release Assays (Echelon Biosciences) were performed with recombinant human truncated SHIP1 (tSHIP1) (Brooks, 2015) and SHIP2 (Echelon Biosciences). Briefly, serial dilutions of the compounds dissolved in DMSO were added to the recombinant enzymes diluted in reaction buffer Rx (50 mM Hepes pH 7.4, 150 mM NaCl, 1 mM MgCl2, 0.25 mM EDTA) in triplicate reactions in 96-well plates. Reactions were incubated for 2 min at room temperature. […] of 1 mM Phosphatidylinositol 3,4,5-trisphosphate diC8 (PI(3,4,5)P3diC8) (Echelon Biosciences) was added to each reaction to a final concentration of 100 μM in a final volume of […]. Following 20 min incubation at 37° C., 100 μL of Malachite Green Solution (Echelon Biosciences) was added to each well and plates were incubated at room temperature in the dark for 15 min. Plates were then read at 620 nm on a plate reader (Synergy 2, BioTek).

[2] = system: IL-6 production in BV-2 cells; assay: ELISA quantitation of IL-6 production in BV-2 cells after stimulation with LPS; type: cell-based, murine; settings: 1 h pretreatment with SHIP1 activator 10 μM, then LPS
Protocol: FIG. 3 presents an ELISA quantitation of IL-6 production in BV-2 cells after stimulation with LPS. BV-2 cells were plated and treated for 1 h with vehicle (Veh, 0.25% DMSO) or SHIP1 activator (10 μM in Veh) prior to addition of LPS (100 ng/ml). Unstimulated BV2 cells treated with Veh are shown as an additional control to assess LPS induction of IL-6. (A) Evaluation of 1, 26, 29 and 53. (B) In a separate experiment, 70, and 71 were evaluated under similar conditions. Bars indicate Mean G SEM; statistical tests: two-way ANOVA with Tukey correction, **** p<0.0001, ** p<0.01.
Given this experience, some of the new activators were evaluated in a cell-based setting. Using the immortalized BV-2 cell line, which is derived from murine microglia and retains many microglial morphological and functional characteristics of microglia, an assay for the anti-inflammatory effects of these activators was developed. This assay involved treatment of the cells with lipopolysaccharides (LPS) to induce IL-6 production which can then be quantified with an ELISA.
Cell culture: The BV2 cell line was obtained from the ATCC (American Type Culture Collection). The ATCC and performs genetic validation on deposited cell lines. For the inflammatory cytokines production studies, BV2 cells were cultured in DMEM/F12 (Corning) 10% HI FBS at 37° C. and 5% CO2 in a humidified incubator and split 1:6 every 3 days with Cellstripper™ (Corning). Cells were kept at 37° C. and 5% CO2 in a humidified incubator.
ELISA measurements: Parental (scrambled guide control) BV2 cells were seeded at 5×10^5/mL, […] in 48 well plate. Cell were treated with […] small molecule or vehicle control (0.5% DMSO) and incubated for 1 h before addition of stimuli. LPS (10 ng/ml, E. coli O111: B4, Sigma) was added to the cells and incubated for 6 h to detect IL-6 production. Supernatants were spun down at 400×g for 5 minutes to remove cell debris and froze at −20° C. for ELISAs. IL-6 levels were quantified from cellular supernatants with ELISA MAX™ Standard Set Mouse IL-6 kit (Biolegend), following manufacturer's recommendations. We detected absorbance at 450 nm and removed 570 nm background absorbance, with a plate reader (Synergy 2, BioTek). All experiments were repeated three times and each value was reported as mean±SEM from biological replicates in the same assay. All statistical analysis were performed using GraphPad Prism (version 9.2). Two-way ANOVA was used to analyze all data with two independent variables as time and treatment or concentration and treatment, data is reported as Mean+/−SEM.

[3] = Solubility of the isolated solid in common solvents; type: physicochemical; settings: DMSO, acetone, methanol, chloroform, and water
Description: While most of the analogs in Table 1 were easy to handle, attempts to isolate the thiomorpholine sulfone 23 were problematic. During the final sulfonamide formation to access 23 an insoluble solid was formed and filtered from the reaction mixture. […] A combustion analysis did match the formula for the desired product, however given the insolubility of this substance it was not evaluated further.

Row | SMILES | Phosphatase activity in the Malachite Green Assay, analog concentration 125 μM [1] [%] | Phosphatase activity in the Malachite Green Assay, analog concentration 250 μM [1] [%] | Phosphatase activity in the Malachite Green Assay, analog concentration 500 μM [1] [%] | IL-6 production induced by LPS [2] | SHIP1 activator activity in the malachite green assay [1] | Solubility [3]
1 | CCCCNS(=O)(=O)c1cc(NC(=O)CNS(=O)(=O)c2ccc(F)cc2)c(C)s1 [Compound K382, N-[5-(Butylsulfamoyl)-2-methylthiophen-3-yl]-2-(4-fluorobenzenesulfonamido) acetamide] | 124 | 124 | 122 | especially significant reductions of IL-6 production | – | –
2 | Cc1sc(S(=O)(=O)N2CCSCC2)cc1NC(=O)CNS(=O)(=O)c1ccccc1C(F)(F)F [Compound K403, N-[2-methyl-5-(thiomorpholine-4-sulfonyl)thiophen-3-yl]-2-(2-trifluoromethylbenzenesulfonamido) acetamide] | 106 | 108 | 139 | significant activity | good activator activity | –
3 | Cc1sc(S(=O)(=O)N2CCS(=O)(=O)CC2)cc1NC(=O)CNS(=O)(=O)c1ccc(F)cc1 [Compound 23] | – | – | – | – | – | insoluble in any solvent
4 | Cc1sc(S(=O)(=O)N2CCCCC2)cc1NC(=O)CNS(=O)(=O)c1ccc(F)cc1 [Compound K368, 2-(4-Fluorobenzenesulfonamido)-N-[2-methyl-5-(piperidine-1-sulfonyl)thiophen-3-yl]acetamide] | 116 | 119 | 128 | especially significant reductions of IL-6 production | nearly as active as K306 | –
5 | Cc1sc(S(=O)(=O)N2CCSCC2)cc1NC(=O)[C@@H]1CCCN1S(=O)(=O)c1ccc(F)cc1 [Compound K408] | 107 | 127 | 130 | significant decrease in IL-6 formation | significant activity at 250 μM | –
6 | Cc1sc(S(=O)(=O)N2CCSCC2)cc1NC(=O)[C@@H](NS(=O)(=O)c1ccc(F)cc1)c1ccccc1 [Compound K409, (2S)-2-(4-Fluorobenzenesulfonamido)-N-[2-methyl-5-(thiomorpholine-4-sulfonyl)thiophen-3-yl]-2-phenylacetamide] | 94 | 107 | 134 | – | – | –
